Where two headings read alike, the source gives them in different places.
Tests used:
[1] = Urine and feces excretion after oral modified formula ECa 233 capsules (LC–MS/MS); format: in vivo, human (healthy Thai volunteers)
Description: This was a single-center, with an open-label, two-sequence of dosages (250 and 500 mg), two-periods of study (single and multiple dose) conducted in fasting condition (Fig. 1). […] All blood samples were centrifuged at 4 °C, 3200 × g for 10 min. […] Feces were also collected from one of the volunteers for detecting the possible presence of any eliminated compounds. Feces samples were collected each time that a volunteer defecated on day 1-3, 4-6 and 7-9 during the study period. These samples were immediately fixed with methanol and prepared by our previously described method of protein precipitation. […] Plasma, urine and fecal samples were then stored at - 80 °C until analysis. Sample preparation was performed by protein precipitation with two internal standards (glycerrhizin and […]) to correct the quantitative analysis of parent compounds and of their metabolites. Briefly, 200 μL of methanol was added followed by vortex mixing with 50 μL of each sample for 10 min and then centrifuged at 12,000 × g, 4 °C, 10 min. […] The MS/MS system was operated using an ESI source in negative mode with MRM.

[2] = Clinical pharmacokinetics in plasma (LC–MS/MS, non-compartmental analysis) after oral modified formula ECa 233 capsules; format: in vivo, human (healthy Thai volunteers)
Description: This was a single-center, with an open-label, two-sequence of dosages (250 and 500 mg), two-periods of study (single and multiple dose) conducted in fasting condition (Fig. 1). […] All blood samples were centrifuged at 4 °C, 3200 × g for 10 min. […] Feces were also collected from one of the volunteers for detecting the possible presence of any eliminated compounds. Feces samples were collected each time that a volunteer defecated on day 1-3, 4-6 and 7-9 during the study period. These samples were immediately fixed with methanol and prepared by our previously described method of protein precipitation. […] Plasma, urine and fecal samples were then stored at - 80 °C until analysis. […] Then they had another set of blood and urine samples collected similar to the single dose study. […] Sample preparation was performed by protein precipitation with two internal standards (glycerrhizin and […]) to correct the quantitative analysis of parent compounds and of their metabolites. Briefly, 200 μL of methanol was added followed by vortex mixing with 50 μL of each sample for 10 min and then centrifuged at 12,000 × g, 4 °C, 10 min. Quantitative determination of the parent compounds and their active metabolites in plasma and urine were carried out by using liquid chromatography tandem mass spectrometry (LC-MS/MS): LCMS-8060 (Shimadzu Corp. Japan) according to a previously validated and published bioanalytical method. […] The MS/MS system was operated using an ESI source in negative mode with MRM. For m/z transition; […] Non-compartmental analysis was applied to determine pharmacokinetic parameters and performed by PK solutions software (version 2.0). […] The apparent clearance (Cl/F) after oral administration was calculated as Cl/F = Dose/AUC, where F is the absolute oral bioavailability. The apparent volume of distribution (Vd/F) was estimated using Vd/F = Dose/(AUC × kel). The Cmax and Tmax were determined directly from the observed concentration-time curve.

[3] = in vivo; cited from earlier work
[4] = human, plasma, po, 250 mg, plasma, multiple dose oral, Day 7 (T0-72 h), ECa 233 250 mg daily, mean ± SD, n=12, read-out: AUC
[5] = human, plasma, po, 250 mg, plasma, multiple dose oral, Day 7 (T0-72 h), ECa 233 250 mg daily, mean ± SD, n=12, read-out: Cmax
[6] = human, plasma, po, 250 mg, plasma, multiple dose oral, Day 7 (T0-72 h), ECa 233 250 mg daily, median [IQR], n=12, read-out: Tmax
[7] = human, plasma, po, 250 mg, plasma, single dose oral, Day 1 (T0-24 h), ECa 233 250 mg, mean ± SD, n=12, read-out: AUC
[8] = human, plasma, po, 250 mg, plasma, single dose oral, Day 1 (T0-24 h), ECa 233 250 mg, mean ± SD, n=12, read-out: Cmax
[9] = human, plasma, po, 250 mg, plasma, single dose oral, Day 1 (T0-24 h), ECa 233 250 mg, median [IQR], n=12, read-out: Tmax
[10] = human, plasma, po, 500 mg, plasma, multiple dose oral, Day 7 (T0-72 h), ECa 233 500 mg daily, mean ± SD, n=11, read-out: AUC
[11] = human, plasma, po, 500 mg, plasma, multiple dose oral, Day 7 (T0-72 h), ECa 233 500 mg daily, mean ± SD, n=11, read-out: Cmax
[12] = human, plasma, po, 500 mg, plasma, multiple dose oral, Day 7 (T0-72 h), ECa 233 500 mg daily, median [IQR], n=11, read-out: Tmax
[13] = human, plasma, po, 500 mg, plasma, single dose oral, Day 1 (T0-24 h), ECa 233 500 mg, mean ± SD, n=11, read-out: AUC
[14] = human, plasma, po, 500 mg, plasma, single dose oral, Day 1 (T0-24 h), ECa 233 500 mg, mean ± SD, n=11, read-out: Cmax
[15] = human, plasma, po, 500 mg, plasma, single dose oral, Day 1 (T0-24 h), ECa 233 500 mg, median [IQR], n=11, read-out: Tmax
[16] = plasma, oral modified formula ECa 233 capsules

Q: Which presence in feces ([1]; fecal samples from one volunteer) does the source give for `C[C@H]1[C@H](C)CC[C@]2(C(=O)O)CC[C@]3(C)C(=CC[C@@H]4[C@@]5(C)C[C@@H](O)[C@H](O)[C@@](C)(CO)[C@@H]5CC[C@]43C)[C@H]12` [ASA, Asiatic acid] here?
A: found in the feces

Q: What about the elimination into urine ([1]; urine 0–24 h after oral dosing of 250 or 500 mg ECa 233) of the same compound?
A: absence of the metabolites in the urine

Q: And the AUC [2, 4]?
A: 1010 ± 221 ng·h/mL

Q: And the Cmax [2, 5]?
A: 78.2 ± 26.4 ng/mL

Q: What about the Tmax [2, 6] of the same compound?
A: 1.5 h

Q: What about the AUC [2, 7] of the same compound?
A: 648 ± 117 ng·h/mL

Q: And the Cmax [2, 8]?
A: 79.8 ± 19.3 ng/mL

Q: What about the Tmax [2, 9] of the same compound?
A: 1.5 h

Q: And the AUC [2, 10]?
A: 1390 ± 333 ng·h/mL

Q: What about the Cmax [2, 11] of the same compound?
A: 170 ± 53.8 ng/mL

Q: And the Tmax [2, 12]?
A: 1.5 h

Q: And the AUC [2, 13]?
A: 733 ± 150 ng·h/mL

Q: What about the Cmax [2, 14] of the same compound?
A: 102 ± 20.8 ng/mL

Q: And the Tmax [2, 15]?
A: 1.5 h

Q: What about the “time after dosing at which Cmax was observed” value [2, 16] of the same compound?
A: 1 to 2 h

Q: What does the source list for `C[C@H]1[C@H](C)CC[C@]2(C(=O)O)CC[C@]3(C)C(=CC[C@@H]4[C@@]5(C)C[C@@H](O)[C@H](O)[C@@](C)(CO)[C@@H]5[C@H](O)C[C@]43C)[C@H]12` [MDA, Madecassic acid]?
A: AUC [2, 4]: 437 ± 175 ng·h/mL; Cmax [2, 5]: 61.4 ± 20.5 ng/mL; Tmax [2, 6]: 2 h; AUC [2, 7]: 410 ± 100 ng·h/mL; Cmax [2, 8]: 66.1 ± 17.1 ng/mL; Tmax [2, 9]: 1.5 h; AUC [2, 10]: 516 ± 157 ng·h/mL; Cmax [2, 11]: 99.8 ± 27.6 ng/mL; Tmax [2, 12]: 1.5 h; AUC [2, 13]: 476 ± 117 ng·h/mL; Cmax [2, 14]: 72.3 ± 16.3 ng/mL; Tmax [2, 15]: 1.5 h; time after dosing at which Cmax was observed [2, 16]: 1 to 2 h

Q: Which results are given for Madecassoside [MDS]?
A: excretion (0–72 h) in feces [3]: 24.68%; excretion (0–72 h) in urine [3]: 0.25%; time after dosing at which Cmax was observed ([2]; human, in vivo, po): ≤ 1 h; AUC ([2]; human, in vivo, po, 250 mg): 75.38 ± 26.60 ng·h/mL; Cmax ([2]; human, in vivo, po, 250 mg): 9.57 ± 3.34 ng/mL; Tmax ([2]; human, in vivo, po, 250 mg): 1 [0.5] h; AUC ([2]; human, in vivo, po, 500 mg): 141.16 ± 41.15 ng·h/mL; Cmax ([2]; human, in vivo, po, 500 mg): 12.73 ± 2.73 ng/mL; Tmax ([2]; human, in vivo, po, 500 mg): 1 [0.5] h

From PMC7994819, “Pharmacokinetics and metabolomics investigation of an orally modified formula of standardized Centella asiatica extract in healthy volunteers” (Scientific Reports, 2021)
